{"source": "paper doi:10.1101/2024.09.05.611349v1", "about": "(biorxiv, 2024)", "test_in_all_cases": "microbe, parasite or virus in culture", "parameters_in_all_cases": "species or system gram-positive clinical isolates", "key": {"[1]": {"system": "Enterococcus faecalis EFA 15-1", "settings": "Enterococcus faecalis"}, "[2]": {"system": "Enterococcus faecalis EFA 15-2", "settings": "Enterococcus faecalis"}, "[3]": {"system": "Enterococcus faecalis EFA 15-58", "settings": "Enterococcus faecalis"}, "[4]": {"system": "Enterococcus faecalis EFA 15-66", "settings": "Enterococcus faecalis"}, "[5]": {"system": "Enterococcus faecalis EFA 15-68", "settings": "Enterococcus faecalis"}, "[6]": {"system": "Enterococcus faecium EFM 15-11", "settings": "Enterococcus faecium"}, "[7]": {"system": "Enterococcus faecium EFM 15-7", "settings": "Enterococcus faecium"}, "[8]": {"system": "Enterococcus faecium EFM 15-8", "settings": "Enterococcus faecium"}, "[9]": {"system": "Enterococcus faecium EFM 15-9", "settings": "Enterococcus faecium"}, "[10]": {"system": "Staphylococcus aureus MRSA 15-2", "settings": "Staphylococcus aureus, MRSA"}, "[11]": {"system": "Staphylococcus aureus MRSA 16-1", "settings": "Staphylococcus aureus, MRSA"}, "[12]": {"system": "Staphylococcus aureus MRSA 16-2", "settings": "Staphylococcus aureus, MRSA"}, "[13]": {"system": "Staphylococcus aureus MRSA 17-1", "settings": "Staphylococcus aureus, MRSA"}, "[14]": {"system": "Staphylococcus aureus MRSA 17-2", "settings": "Staphylococcus aureus, MRSA"}, "[15]": {"system": "Staphylococcus aureus MRSA 17-3", "settings": "Staphylococcus aureus, MRSA"}, "[16]": {"system": "Staphylococcus aureus MRSA 17-4", "settings": "Staphylococcus aureus, MRSA"}, "[17]": {"system": "Staphylococcus aureus MRSA 17-5", "settings": "Staphylococcus aureus, MRSA"}, "[18]": {"system": "Staphylococcus aureus MRSA 17-6", "settings": "Staphylococcus aureus, MRSA"}, "[19]": {"system": "Staphylococcus aureus MSSA 15-2", "settings": "Staphylococcus aureus, MSSA"}, "[20]": {"system": "Staphylococcus aureus MSSA 15-5", "settings": "Staphylococcus aureus, MSSA"}, "[21]": {"system": "Staphylococcus aureus MSSA 15-6", "settings": "Staphylococcus aureus, MSSA"}, "[22]": {"system": "Staphylococcus aureus MSSA 16-1", "settings": "Staphylococcus aureus, MSSA"}, "[23]": {"system": "Staphylococcus aureus MSSA 16-2", "settings": "Staphylococcus aureus, MSSA"}, "[24]": {"system": "Staphylococcus epidermidis MRSE 15-3", "settings": "Staphylococcus epidermidis, MRSE"}, "[25]": {"system": "Staphylococcus epidermidis MRSE 15-76", "settings": "Staphylococcus epidermidis, MRSE"}, "[26]": {"system": "Staphylococcus epidermidis MRSE 15-78", "settings": "Staphylococcus epidermidis, MRSE"}, "[27]": {"system": "Staphylococcus epidermidis MRSE 15-81", "settings": "Staphylococcus epidermidis, MRSE"}, "[28]": {"settings": "read-out: MIC(μg/ml) / vancomycin"}}, "note": "Read-outs that look alike come from different tables or passages of the source."}
{"smiles": "CCCCCOc1ccc(C(=O)NNC(=S)NC(C)=O)cc1", "note": "[1b, N-(2-(4-(n-pentoxy)benzoyl)hydrazine-1-carbonothioyl)acetamide]", "values": [{"measurement": "MIC", "setting": "[1]; EFA151, read-out: MIC(μg/ml) / 1b", "value": 8, "unit": "µg/mL"}, {"measurement": "MIC", "setting": "[2]; EFA152, read-out: MIC(μg/ml) / 1b", "value": 8, "unit": "µg/mL"}, {"measurement": "MIC", "setting": "[3]; EFA1558, read-out: MIC(μg/ml) / 1b", "value": 4, "unit": "µg/mL"}, {"measurement": "MIC", "setting": "[4]; EFA1566, read-out: MIC(μg/ml) / 1b", "value": 4, "unit": "µg/mL"}, {"measurement": "MIC", "setting": "[5]; EFA1568, read-out: MIC(μg/ml) / 1b", "value": 4, "unit": "µg/mL"}, {"measurement": "MIC", "setting": "[6]; EFM1511, read-out: MIC(μg/ml) / 1b", "value": 4, "unit": "µg/mL"}, {"measurement": "MIC", "setting": "[7]; EFM157, read-out: MIC(μg/ml) / 1b", "value": 2, "unit": "µg/mL"}, {"measurement": "MIC", "setting": "[8]; EFM158, read-out: MIC(μg/ml) / 1b", "value": 2, "unit": "µg/mL"}, {"measurement": "MIC", "setting": "[9]; EFM159, read-out: MIC(μg/ml) / 1b", "value": 4, "unit": "µg/mL"}, {"measurement": "MIC", "setting": "[10]; read-out: MIC(μg/ml) / 1b", "value": 4, "unit": "µg/mL"}, {"measurement": "MIC", "setting": "[11]; read-out: MIC(μg/ml) / 1b", "value": 2, "unit": "µg/mL"}, {"measurement": "MIC", "setting": "[12]; read-out: MIC(μg/ml) / 1b", "value": 2, "unit": "µg/mL"}, {"measurement": "MIC", "setting": "[13]; read-out: MIC(μg/ml) / 1b", "value": 2, "unit": "µg/mL"}, {"measurement": "MIC", "setting": "[14]; read-out: MIC(μg/ml) / 1b", "value": 4, "unit": "µg/mL"}, {"measurement": "MIC", "setting": "[15]; read-out: MIC(μg/ml) / 1b", "value": 2, "unit": "µg/mL"}, {"measurement": "MIC", "setting": "[16]; read-out: MIC(μg/ml) / 1b", "value": 2, "unit": "µg/mL"}, {"measurement": "MIC", "setting": "[17]; read-out: MIC(μg/ml) / 1b", "value": 2, "unit": "µg/mL"}, {"measurement": "MIC", "setting": "[18]; read-out: MIC(μg/ml) / 1b", "value": 2, "unit": "µg/mL"}, {"measurement": "MIC", "setting": "[19]; read-out: MIC(μg/ml) / 1b", "value": 2, "unit": "µg/mL"}, {"measurement": "MIC", "setting": "[20]; read-out: MIC(μg/ml) / 1b", "value": 2, "unit": "µg/mL"}, {"measurement": "MIC", "setting": "[21]; read-out: MIC(μg/ml) / 1b", "value": 2, "unit": "µg/mL"}, {"measurement": "MIC", "setting": "[22]; read-out: MIC(μg/ml) / 1b", "value": 1, "unit": "µg/mL"}, {"measurement": "MIC", "setting": "[23]; read-out: MIC(μg/ml) / 1b", "value": 1, "unit": "µg/mL"}, {"measurement": "MIC", "setting": "[24]; read-out: MIC(μg/ml) / 1b", "value": 2, "unit": "µg/mL"}, {"measurement": "MIC", "setting": "[25]; read-out: MIC(μg/ml) / 1b", "value": 2, "unit": "µg/mL"}, {"measurement": "MIC", "setting": "[26]; read-out: MIC(μg/ml) / 1b", "value": 2, "unit": "µg/mL"}, {"measurement": "MIC", "setting": "[27]; read-out: MIC(μg/ml) / 1b", "value": 0.5, "unit": "µg/mL"}]}
{"smiles": "CN[C@H](CC(C)C)C(=O)N[C@H]1C(=O)N[C@@H](CC(N)=O)C(=O)N[C@H]2C(=O)N[C@H]3C(=O)N[C@H](C(=O)N[C@H](C(=O)O)c4cc(O)cc(O)c4-c4cc3ccc4O)[C@H](O)c3ccc(c(Cl)c3)Oc3cc2cc(c3O[C@@H]2O[C@H](CO)[C@@H](O)[C@H](O)[C@H]2O[C@H]2C[C@](C)(N)[C@H](O)[C@H](C)O2)Oc2ccc(cc2Cl)[C@H]1O", "note": "[vancomycin]", "values": [{"measurement": "MIC", "setting": "[1]; EFA151, read-out: MIC(μg/ml) / vancomycin", "value": 0.5, "unit": "µg/mL"}, {"measurement": "MIC", "setting": "[2]; EFA152, read-out: MIC(μg/ml) / vancomycin", "value": 0.5, "unit": "µg/mL"}, {"measurement": "MIC", "setting": "[3]; EFA1558, read-out: MIC(μg/ml) / vancomycin", "value": 0.5, "unit": "µg/mL"}, {"measurement": "MIC", "setting": "[4]; EFA1566, read-out: MIC(μg/ml) / vancomycin", "value": 2, "unit": "µg/mL"}, {"measurement": "MIC", "setting": "[5]; EFA1568, read-out: MIC(μg/ml) / vancomycin", "value": 0.5, "unit": "µg/mL"}, {"measurement": "MIC", "setting": "[6]; EFM1511, read-out: MIC(μg/ml) / vancomycin", "value": 0.5, "unit": "µg/mL"}, {"measurement": "MIC", "setting": "[7]; EFM157, read-out: MIC(μg/ml) / vancomycin", "value": 0.5, "unit": "µg/mL"}, {"measurement": "MIC", "setting": "[8]; EFM158, read-out: MIC(μg/ml) / vancomycin", "value": 0.5, "unit": "µg/mL"}, {"measurement": "MIC", "setting": "[9]; EFM159, read-out: MIC(μg/ml) / vancomycin", "value": 0.5, "unit": "µg/mL"}, {"measurement": "MIC", "setting": "[10]; [28]", "value": 2, "unit": "µg/mL"}, {"measurement": "MIC", "setting": "[11]; [28]", "value": 1, "unit": "µg/mL"}, {"measurement": "MIC", "setting": "[12]; [28]", "value": 1, "unit": "µg/mL"}, {"measurement": "MIC", "setting": "[13]; [28]", "value": 0.5, "unit": "µg/mL"}, {"measurement": "MIC", "setting": "[14]; [28]", "value": 0.5, "unit": "µg/mL"}, {"measurement": "MIC", "setting": "[15]; [28]", "value": 1, "unit": "µg/mL"}, {"measurement": "MIC", "setting": "[16]; [28]", "value": 1, "unit": "µg/mL"}, {"measurement": "MIC", "setting": "[17]; [28]", "value": 0.5, "unit": "µg/mL"}, {"measurement": "MIC", "setting": "[18]; [28]", "value": 0.5, "unit": "µg/mL"}, {"measurement": "MIC", "setting": "[19]; [28]", "value": 1, "unit": "µg/mL"}, {"measurement": "MIC", "setting": "[20]; [28]", "value": 0.5, "unit": "µg/mL"}, {"measurement": "MIC", "setting": "[21]; [28]", "value": 0.5, "unit": "µg/mL"}, {"measurement": "MIC", "setting": "[22]; [28]", "value": 0.5, "unit": "µg/mL"}, {"measurement": "MIC", "setting": "[23]; [28]", "value": 0.5, "unit": "µg/mL"}, {"measurement": "MIC", "setting": "[24]; [28]", "value": 2, "unit": "µg/mL"}, {"measurement": "MIC", "setting": "[25]; [28]", "value": 2, "unit": "µg/mL"}, {"measurement": "MIC", "setting": "[26]; [28]", "value": 1, "unit": "µg/mL"}, {"measurement": "MIC", "setting": "[27]; [28]", "value": 2, "unit": "µg/mL"}]}
